Values joined by “and” are separate entries in the source; they are usually repeats but may differ in a detail not shown here. Equal entries are not always repeated. “Also recorded” adds a separate entry of the source. Where two headings read alike, the source gives them in different places.
Columns and labels:
Type in all cases: cell-based, Plasmodium falciparum
Dd2 parasites = test: P. falciparum proliferation assay (72 h, fluorescent DNA-intercalating dye); settings: read-out: IC50 values; Dd2 parasites; individual experiments
Protocol: (§1) For experiments with all other parasites, the effects of compounds of interest on parasite proliferation was measured in 96-well plates containing serial dilutions of the compounds in culture medium, with a fluorescent DNA-intercalating dye used to detect surviving parasites. The assays were initiated with erythrocytes infected with predominantly ring-stage parasites, and the starting parasitaemia and haematocrit were both 1%.

[1] = system: Dd2-PfATP4^T418N,P990R parasites; test: as above; settings: Dd2-PfATP4T418N,P990R parasites; individual experiments; read-out: IC50 values
Protocol: as §1

[2] = system: Dd2-Polδ-PfATP4^G358S parasites; test: as above; settings: Dd2-Polδ-PfATP4G358S parasites; individual experiments; read-out: IC50 values
Protocol: as §1

[3] = system: HCR2 parasites (highly cipargamin-resistant clone 2); test: as above; settings: HCR2 parasites, individual experiments, read-out: IC50 values
Protocol: as §1

[4] = system: HCR1 parasites (highly cipargamin-resistant clone 1); test: as above; settings: Plasmodium falciparum, HCR1 parasites; individual experiments; read-out: IC50 values
Protocol: as §1

Dd2-Polδ parasites = test: as above
Protocol: as §1

NF54^CTL parasites = test: P. falciparum proliferation assay (72 h, flow cytometry, SYBR Green I/MitoTracker); settings: for FC (IC50) / FC (IC90): NF54CTL compared to NF54WT
Protocol: (§2) For the NF54-based lines and Dd2-B2-PfATP4^G358S and its parent, assays were initiated with cultures containing predominantly ring-stage parasites with a parasitaemia of 0.3% and a haematocrit of 1%. All assays using NF54 were performed in culture media containing 10% O + human serum. The duration of the assays was 72 h and the concentration of DMSO was <0.5% (v/v). Serial dilutions of the test compounds were performed using a Tecan D300e digital dispenser, with parasite cultures added manually. Parasite survival was assessed by flow cytometry on an Intellicyt iQue3 (Essen Bioscience), with 1× SYBR Green I (Invitrogen) and 200 nM MitoTracker Deep Red FM (Invitrogen) used to stain the nucleus and the mitochondria in live parasites, respectively. The gating strategy used to quantify parasite survival, performed using FlowJo version 10 (FlowJo LLC.), is illustrated in Supplementary Fig. 9. IC50 and IC90 values were calculated by linear interpolation of the dose-response data.

[5] = system: parasite lines with a G358S mutation in PfATP4; test: P. falciparum proliferation assays, statements on all lines with the G358S mutation; settings: G358S lines vs PfATP4 wild-type controls
Protocol: as §2, with “Two types of parasite proliferation assays were employed in this study, with both yielding highly consistent results. For” for “For”
as §1, with “1%. […] Fluorescence was measured using a FLUOstar OPTIMA plate reader (BMG LABTECH), with OPTIMA version 2.20R2 and MARS Data Analysis Software version 3.01 R2 (BMG LABTECH).” for “1%.”

NF54^WT parasites = test: microbe, parasite or virus in culture; settings: for FC (IC50) / FC (IC90): NF54WT, reference line
Protocol: as §2

NF54^G358S-2 parasites = test: P. falciparum proliferation assay (72 h, flow cytometry, SYBR Green I/MitoTracker)
Protocol: as §2

NF54^G358S-1 parasites = test: as above
Protocol: as §2

[6] = NF54CTL parasites, individual experiments, read-out: IC50 values
[7] = NF54CTL parasites, individual experiments, read-out: IC90 values
[8] = Plasmodium falciparum, NF54, NF54CTL parasites, individual experiments, read-out: IC90 values
[9] = Plasmodium falciparum, NF54, NF54CTL parasites, mean of the experiments, read-out: IC50 values, MEAN
[10] = Plasmodium falciparum, NF54, NF54CTL parasites, mean of the experiments, read-out: IC90 values, MEAN
[11] = NF54WT parasites, individual experiments, read-out: IC50 values
[12] = NF54WT parasites, individual experiments, read-out: IC90 values
[13] = Plasmodium falciparum, NF54, NF54WT parasites, individual experiments, read-out: IC90 values
[14] = Plasmodium falciparum, NF54, NF54WT parasites, mean of the experiments, read-out: IC50 values, MEAN
[15] = Plasmodium falciparum, NF54, NF54WT parasites, mean of the experiments, read-out: IC90 values, MEAN

CCN(CC)CCCC(C)Nc1ccnc2cc(Cl)ccc12 (stereo not shown) [Chloroquine]
IC50 (Dd2 parasites): 92 nM and 187 nM
IC50 [1]: 165 nM
IC50 [2]: 161 nM and 262 nM and 227 nM
IC50 [3]: 229 nM
IC50 ([3]; Plasmodium falciparum): 159 nM
IC50 [4]: 92 nM
IC50 (Dd2-Polδ parasites; Dd2-Polδ parasites, individual experiments, read-out: IC50 values): 172 nM and 316 nM
IC50 (Dd2-Polδ parasites; Plasmodium falciparum, DD2, Dd2-Polδ parasites, mean of the experiments, read-out: IC50 values, MEAN): 185 nM
IC50 (Dd2-Polδ parasites; Plasmodium falciparum, DD2, SET-2, read-out: Mean IC50 value ± SEM for growth inhibition, Dd2-Polδ, Supplementary Table 1, Set 2): 185 nM

CC1(C)c2nc(-c3ccc(F)cc3)c(Nc3ccc(F)cc3)n2CCN1C(=O)CN [KAF156]
FC (IC50) (NF54^CTL parasites): 0.7 fold
FC (IC90) (NF54^CTL parasites): 0.8 fold
IC50 (NF54^CTL parasites; [6]): 5.1 nM and 4.4 nM and 4.5 nM and 5.9 nM and 4.7 nM
IC90 (NF54^CTL parasites; [7]): 13.8 nM and 9.19 nM and 9.36 nM and 8.54 nM and 9.44 nM and 9.66 nM
IC50 (NF54^CTL parasites; Plasmodium falciparum, NF54, NF54CTL parasites, individual experiments, read-out: IC50 values): 5.5 nM
IC90 (NF54^CTL parasites; [8]): 12.6 nM
IC50 (NF54^CTL parasites; [9]): 4.9 nM
IC90 (NF54^CTL parasites; [10]): 10.4 nM
effect of the G358S mutation in PfATP4 on parasite susceptibility [5]: no impact; also recorded: no effect
IC50 (NF54^WT parasites; [11]): 6.9 nM and 7.1 nM and 5.4 nM
IC90 (NF54^WT parasites; [12]): 14.7 nM and 12.9 nM and 12.4 nM and 9.88 nM and 13.6 nM and 9.68 nM
FC (IC50) (NF54^WT parasites): 1.0 fold
FC (IC90) (NF54^WT parasites): 1.0 fold
IC50 (NF54^WT parasites; Plasmodium falciparum, NF54, NF54WT parasites, individual experiments, read-out: IC50 values): 7.2 nM
IC90 (NF54^WT parasites; [13]): 17.6 nM
IC50 (NF54^WT parasites; [14]): 6.7 nM
IC90 (NF54^WT parasites; [15]): 13 nM
IC50 (NF54^WT parasites; Plasmodium falciparum, NF54, NF54WT, 10% human serum, read-out: IC50 ± SEM): 6.7 ± 0.2 nM

CCCCN(CCCC)CC(O)c1cc(Cl)cc2c1-c1ccc(Cl)cc1/C2=C/c1ccc(Cl)cc1 (stereo not shown) [Lumefantrine]
FC (IC50) (NF54^CTL parasites): 0.8 fold
FC (IC90) (NF54^CTL parasites): 1.0 fold
IC50 (NF54^CTL parasites; [6]): 38.6 nM and 28.4 nM and 70.8 nM and 45.8 nM
IC90 (NF54^CTL parasites; [7]): 98.1 nM and 138 nM and 120 nM
IC90 (NF54^CTL parasites; [8]): 138 nM
IC50 (NF54^CTL parasites; [9]): 45.9 nM
IC90 (NF54^CTL parasites; [10]): 123 nM
FC (IC50) (NF54^G358S-2 parasites; NF54G358S-2 compared to NF54WT): 0.7 fold
FC (IC90) (NF54^G358S-2 parasites; NF54G358S-2 compared to NF54WT): 1.0 fold
IC50 (NF54^G358S-2 parasites; NF54G358S-2 parasites, individual experiments, read-out: IC50 values): 31.8 nM and 46.1 nM and 31.3 nM
IC90 (NF54^G358S-2 parasites; NF54G358S-2 parasites, individual experiments, read-out: IC90 values): 82.7 nM and 129 nM and 123 nM
IC50 (NF54^G358S-2 parasites; Plasmodium falciparum, NF54, NF54G358S-2 parasites, individual experiments, read-out: IC50 values): 55.1 nM
IC90 (NF54^G358S-2 parasites; Plasmodium falciparum, NF54, NF54G358S-2 parasites, individual experiments, read-out: IC90 values): 152 nM
IC50 (NF54^G358S-2 parasites; Plasmodium falciparum, NF54, NF54G358S-2 parasites, mean of the experiments, read-out: IC50 values, MEAN): 41.1 nM
IC90 (NF54^G358S-2 parasites; Plasmodium falciparum, NF54, NF54G358S-2 parasites, mean of the experiments, read-out: IC90 values, MEAN): 122 nM
FC (IC50) (NF54^G358S-1 parasites; NF54G358S-1 compared to NF54WT): 0.7 fold
FC (IC90) (NF54^G358S-1 parasites; NF54G358S-1 compared to NF54WT): 1.1 fold
IC50 (NF54^G358S-1 parasites; NF54G358S-1 parasites, individual experiments, read-out: IC50 values): 34 nM and 51.7 nM and 36.1 nM
IC90 (NF54^G358S-1 parasites; NF54G358S-1 parasites, individual experiments, read-out: IC90 values): 115 nM and 130 nM and 120 nM
IC50 (NF54^G358S-1 parasites; Plasmodium falciparum, NF54, NF54G358S-1 parasites, individual experiments, read-out: IC50 values): 48.2 nM
IC90 (NF54^G358S-1 parasites; Plasmodium falciparum, NF54, NF54G358S-1 parasites, individual experiments, read-out: IC90 values): 182 nM
IC50 (NF54^G358S-1 parasites; Plasmodium falciparum, NF54, NF54G358S-1 parasites, mean of the experiments, read-out: IC50 values, MEAN): 42.5 nM
IC90 (NF54^G358S-1 parasites; Plasmodium falciparum, NF54, NF54G358S-1 parasites, mean of the experiments, read-out: IC90 values, MEAN): 137 nM
effect of the G358S mutation in PfATP4 on parasite susceptibility [5]: no effect
IC50 (NF54^WT parasites; [11]): 57 nM and 33.7 nM and 89.8 nM and 48.6 nM
IC90 (NF54^WT parasites; [12]): 102 nM and 140 nM and 109 nM
FC (IC50) (NF54^WT parasites): 1.0 fold
FC (IC90) (NF54^WT parasites): 1.0 fold
IC90 (NF54^WT parasites; [13]): 142 nM
IC50 (NF54^WT parasites; [14]): 57.3 nM
IC90 (NF54^WT parasites; [15]): 123 nM
